From patent US20190079075A1, “PHARMECEUTICAL COMPOSITION FOR LUNG CANCER TREATMENT AND METHODS FOR PROVIDING INFORMATION AND SCREENING” (DONG-A UNIVERSITY RESEARCH FOUNDATION FOR INDUSTRY-ACADEMY …, priority 2015, published 2019)

Assays:
[1] = system: lung cancer cells; assay: Local UV irradiation and immunofluorescence (6-4PP repair kinetics, XPA foci); assay type: cell-based, human; conditions: for XPA foci-positive cells, Pt-PreC vs nonPreC: FIG. 7B
Experimental: Results are presented as mean±SD from three independent experiments. Differences were considered significant at the value of P<0.01 (**). FIGS. 8A to 8D show the upregulation of SIRT1 expression during PreC. […] GAPDH was used as a loading control. […] Histone H3 was used to indicate chromatin-enriched fraction. […] 60 minutes after local UV irradiation the 6-4PP foci-positive cells were counted from randomly selected 1000 cells in each sample. The bars and error bars represent the mean±s.d from three independent experiments. Differences were considered significant at the value of P<0.001 (***). […] After incubation for the recovery times the cells were fixed in 4% paraformaldehyde for 15 min, followed by conventional immunofluorescence staining procedures. UV-induced lesions were counter-labeled with anti-6-4PP antibody, and XPA foci-positive cells were counted for quantitative analysis. The images were captured using Nikon imaging software NIS-Elements 4.0.

[2] = system: lung cancer cells; assay: Immunoslot blotting of Pt-GpG adduct removal after cisplatin preconditioning; assay type: cell-based, human
Experimental: FIGS. 4A and 4B show the enhanced Pt-GpG diadduct removal by Pt-PreC. […] The bars and error bars represent the mean±s.d from three independent experiments. A549 and H460 cells (American Type Culture Collection, Manassas, Va., USA) were cultured in Dulbecco's modified Eagle medium supplemented with 10% fetal bovine serum and 1% penicillin-streptomycin. 100% confluent cells were kept for additional four days to completely block cell proliferation and then exposed to the UV light using a germicidal lamp (for immunoslot blotting) or UV crosslinker (for immunofluorescence) emitting primarily UV-C light. A UV-C sensor (UV Products, Upland, Calif., USA) was used to calibrate the fluence rate of the incident light. For immunofluorescence staining, cells were grown on a glass coverslip coated with poly-D-lysine and laminin (BD Biosciences, San Jose, Calif., USA). For assessment of cell viability, CellTiter-Fluor Cell Viability Assay kit (Promega, Madison, Wis., USA) was used as indicated in manufacturer's protocol. Fluorescence plate reader (BIORAD, Hercules, Calif., USA) was used to measure a constitutive protease activity within live cells using a fluorogenic and cell permeable peptide substrate. […]

[3] = system: lung cancer cells; assay: Immunoslot blotting of residual UV-induced CPDs after cisplatin preconditioning; assay type: cell-based, human; conditions: preconditioning with 5 μM cisplatin; 5 or 10 J/m^2 UV; FIGS. 3B and 3C
Experimental: FIGS. 3A to 3C show the enhanced UV-induced CPD repair activity following Pt-PreC. […] After immunoslot blotting the membrane was counterstained with SYBR-Gold for a loading control of genomic DNA. 5 J/m^2 (FIG. 3B) or 10 J/m^2 (FIG. 3C) of UV-induced CPD repair kinetics were measured from cells conditioned with nonPreC or Pt-PreC.
A549 and H460 cells (American Type Culture Collection, Manassas, Va., USA) were cultured in Dulbecco's modified Eagle medium supplemented with 10% fetal bovine serum and 1% penicillin-streptomycin. 100% confluent cells were kept for additional four days to completely block cell proliferation and then exposed to the UV light using a germicidal lamp (for immunoslot blotting) or UV crosslinker (for immunofluorescence) emitting primarily UV-C light. A UV-C sensor (UV Products, Upland, Calif., USA) was used to calibrate the fluence rate of the incident light. For immunofluorescence staining, cells were grown on a glass coverslip coated with poly-D-lysine and laminin (BD Biosciences, San Jose, Calif., USA). For assessment of cell viability, CellTiter-Fluor Cell Viability Assay kit (Promega, Madison, Wis., USA) was used as indicated in manufacturer's protocol. Fluorescence plate reader (BIORAD, Hercules, Calif., USA) was used to measure a constitutive protease activity within live cells using a fluorogenic and cell permeable peptide substrate. […]

[4] = system: 6-4PP-containing DNA substrate; assay: Dual-incision NER activity assay with lysate of Pt-PreC cells; assay type: cell-based, human; conditions: FIG. 5
Experimental: Dual-incision NER activity assay was performed using isotope-labeled and 6-4PP-containing linear substrate DNA and cell lysates obtained from nonPreC and Pt-PreC cells at the indicated times after PreC. Amount of excision product was used as a measure of the NER capacity of the lysate. Results are presented as mean±SD from three independent experiments. Differences were considered significant at the values of P<0.01 (**) and P<0.001 (***). Assay of NER activity in the cell lysate toward 6-4PP-containing DNA substrate was carried out. Briefly, 10 fmol of 140-bp duplex with a 6-4PP in the center and ^32P-label at the 5th phosphodiester bond 5′ to the site of the lesion was incubated with 70 μg of lysate in 25 μL of excision buffer at 30° C. for 1 h. The amount of excision product was used as a measure of NER capacity in the lysate. The 6-4PP-containing linear duplex substrate DNA and NER-competent cell lysate were prepared.

[5] = molecular target: T1, SIRT1 (Homo sapiens, UniProt Q96EB6); assay: XPA acetylation by immunoprecipitation of XPA and immunoblotting with anti-acetyl-lysine antibody; assay type: cell-based; conditions: UV-PreC cells pretreated with EX527 for 5 h before cisplatin treatment; FIG. 8B
T1 sequence (Q96EB6 1-747): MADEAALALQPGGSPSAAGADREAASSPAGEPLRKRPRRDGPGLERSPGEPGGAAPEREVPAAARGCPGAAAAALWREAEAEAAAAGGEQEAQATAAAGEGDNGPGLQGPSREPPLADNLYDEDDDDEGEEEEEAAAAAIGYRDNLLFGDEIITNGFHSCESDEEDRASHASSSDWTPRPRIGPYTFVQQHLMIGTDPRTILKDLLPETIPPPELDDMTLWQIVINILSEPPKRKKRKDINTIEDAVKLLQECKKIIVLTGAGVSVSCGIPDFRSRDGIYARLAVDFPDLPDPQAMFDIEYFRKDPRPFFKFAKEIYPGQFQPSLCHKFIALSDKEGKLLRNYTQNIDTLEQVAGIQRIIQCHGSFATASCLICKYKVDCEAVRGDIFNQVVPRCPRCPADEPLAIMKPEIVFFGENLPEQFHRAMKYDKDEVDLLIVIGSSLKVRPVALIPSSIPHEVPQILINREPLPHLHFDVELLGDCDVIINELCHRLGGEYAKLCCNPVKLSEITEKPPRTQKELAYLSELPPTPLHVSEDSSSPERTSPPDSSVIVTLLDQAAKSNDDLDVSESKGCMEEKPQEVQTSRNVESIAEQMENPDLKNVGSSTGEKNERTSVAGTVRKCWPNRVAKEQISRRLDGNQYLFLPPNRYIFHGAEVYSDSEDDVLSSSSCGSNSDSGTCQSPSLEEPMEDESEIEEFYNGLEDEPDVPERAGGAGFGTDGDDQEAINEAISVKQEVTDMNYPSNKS
Experimental: PreC cells were pretreated with EX527 for 5 h before cisplatin treatment.
Antibodies used in this study include those against XPA (Kamiya), XPB-XPD (Santa Cruz Biotechnology, Santa Cruz, Calif., USA), XPE, p-p53, p-CHK1, GAPDH, SIRT1, acetyl-lysine (Cell Signaling Technology), XPF, and XPG (both Abcam, Cambridge, UK). For immunoprecipitation of XPA, 1 mg of whole-cell lysate was incubated with 1 μg of anti-XPA conjugated to Protein A/G-agarose beads (Sigma, St. Louis, Mo., USA) for 12 h at 4° C. with rotation. After washing with lysis buffer, proteins were eluted from the beads by boiling in SDS sample buffer and resolved on 10% SDS-polyacrylamide gels. For detection of XPA acetylation, anti-acetyl-lysine was employed.

[6] = molecular target: T1, SIRT1; assay: XPA loading to chromatin (chromatin-enriched fraction, immunoblotting); conditions: EX527 pretreatment before cisplatin following UV-PreC; FIG. 8B

Structure (SMILES)	6-4PP removal, Pt-PreC vs nonPreC control ([1]; 200 J/m^2 local UV irradiation, FIG. 7A)	XPA foci-positive cells, Pt-PreC vs nonPreC ([1]; 60 min after UV exposure)	XPA foci-positive cells, Pt-PreC vs nonPreC ([1]; within 30 min of recovery time)	remaining Pt-GpG adduct after Pt-PreC ([2]; 48 h after Pt-PreC with 5 μM of cisplatin, FIG. 4A)	Pt-GpG repair kinetics upon following cisplatin treatment, Pt-PreC vs nonPreC ([2]; Pt-PreC 5 μM, then 10 μM cisplatin, FIG. 4B)	kinetics of CPD repair after the same dose of UV, preconditioned vs nonPreC [3]	time after PreC at which NER activity peaked [4]	time after PreC at which NER activity started to increase [4]	time after PreC at which enhancement of NER capacity was no longer detected [4]	effect on PreC-induced repair capacity (6-4PP repair kinetics) ([1]; 1 μM EX-527 for 5 h before local UV irradiation, 6-4PP foci-positive cells counted 60 min after UV, FIG. 8C)	effect on the UV-PreC-induced decrease in acetylation level of XPA [5]	effect on UV-PreC-induced enhancement of XPA chromatin loading [6]
N.N.[Cl][Pt][Cl] [cisplatin]	accelerated the 6-4PP removal	approximately 3 times less	no difference	no remaining Pt-GpG adduct	much faster	much faster	48 h	12 h	72 h	–	–	–
NC(=O)C1CCCc2c1[nH]c1ccc(Cl)cc21 (stereo not drawn) [EX527, 6-chloro-2,3,4,9-tetrahydro-1H-carbazole-1-carboxamide]	–	–	–	–	–	–	–	–	–	compromised by SIRT1 inhibition	immediately reversed	reduced in the presence of EX527
